Measured values as given in patent US6727276B2, “Epothilone derivatives for the treatment of refractory tumors” (Bristol-Myers Squibb Company, priority 2001, dated 2004).
pIC50: −log10 of the molar value. Where two headings read alike, the source gives them in different places.

Columns and labels:
[1] = system: HCT116/VM46 human colon carcinoma xenograft; experiment: In vivo antitumor testing, HCT116/VM46 xenograft
[2] = system: Pat-26 human pancreatic carcinoma; experiment: In vivo antitumor testing, Pat-26 xenograft
[3] = system: A2780Tax ovarian carcinoma xenograft (mutated tubulin); design: species or system nude mice; conditions: mouse, in vivo
HCT116/VM46 cells = type: cell-based, human
Pat-21 breast carcinoma = system: Pat-21 breast carcinoma; design: species or system nude mice; conditions: mouse, in vivo
[4] = system: Pat-7 human ovarian carcinoma
[5] = system: tubulin isolated from calf brain; type: biochemical
[6] = In vivo antitumor testing, HCT116/VM46 xenograft; conditions: Balb/c nu/nu, mouse, in vivo, iv
[7] = In vivo antitumor testing, Pat-26 xenograft; conditions: Balb/c nu/nu, mouse, in vivo, iv
in vivo = conditions: Balb/c nu/nu, mouse
[8] = system: panel of tumor cell lines; experiment: Cytotoxicity assay (tetrazolium-based colorimetric), panel of tumor cell lines; conditions: 72 h, read-out: IC50 (median cytotoxic concentration)
[9] = paclitaxel, results obtained in separate studies

CC(=O)O[C@H]1C(=O)[C@@]2(C)[C@H]([C@H](OC(=O)c3ccccc3)[C@]3(O)C[C@H](OC(=O)[C@H](O)[C@@H](NC(=O)c4ccccc4)c4ccccc4)C(C)=C1C3(C)C)[C@]1(OC(C)=O)CO[C@@H]1C[C@@H]2O [Paclitaxel, paclitaxel, reference compound]
LCK (gross log cell kill) [1, 9]: 0.55
LCK (gross log cell kill) [2, 9]: 0.4
LCK (gross log cell kill) [3]: 0.8
ratio of concentration (R/S or resistance ratio) to inhibit cell growth by 50% (HCT116/VM46 cells): 155 fold
LCK (gross log cell kill) (Pat-21 breast carcinoma): 0.3
LCK (gross log cell kill) [4, 9]: 0.8

Epothilone B [BMS-205535]
Polymerization Potency, EC0.01 [5]: 1800 nM
Ratio of Polymerization Potency of Analog/Paclitaxel [5]: 0.3

C/C(=C\c1csc(C)n1)[C@@H]1C[C@@H]2O[C@@H]2CCC[C@H](C)[C@H](O)[C@@H](C)C(=O)C(C)(C)[C@@H](O)CC(=O)O1 [BMS-212188, Epothilone A]
Ratio of Polymerization Potency of Analog/Paclitaxel [5]: 0.4
Polymerization Potency, EC0.01 ([5]; concentration inducing initial slope of 0.01 OD/minute): 2000 nM

C/C(=C\c1csc(CN)n1)[C@@H]1C[C@@H]2O[C@]2(C)CCC[C@H](C)[C@H](O)[C@@H](C)C(=O)C(C)(C)[C@@H](O)CC(=O)O1 (relative stereo) [BMS-310705, [1S-[1R*,3R*(E),7R*,10S*,11R*,12R*,16S*]]-7,11-dihydroxy-8,8,10,12,16-pentamethyl-3-[1-methyl-2-(2-aminomethyl-4-thiazolyl)ethenyl]-4,17-dioxabicyclo[14.1.0]heptadecane-5,9-dione]
LCK (gross log cell kill) ([1]; BMS-310705, IV, q4dx3 at OD 7.5 mg/kg, Expt. 40): 1.5
MTD [6]: 7.5 mg/kg
LCK (gross log cell kill) ([2]; BMS-310705, IV, q4dx3 at OD 10 mg/kg, Expt. 968): 1.2
MTD [7]: 10 mg/kg
MTD (in vivo; iv): 8 mg/kg
MTD (in vivo; po, pH 8): 90 mg/kg
LCK (gross log cell kill) (Pat-21 breast carcinoma): >4.1
water solubility (in words) (Water solubility): highly water-soluble
gross log cell kill (LCK) ([4]; BMS-310705 (PO), PO, q4dx3 at OD/MTD 90 mg/kg, Expt. 18): 2.4
LCK (gross log cell kill) ([4]; BMS-310705, IV, q4dx3 at OD 8 mg/kg, Expt. 14): 2.4
antitumor activity given orally compared with IV administration (in words) ([4]; PO vs IV): equivalent to that produced by IV drug administration
oral antitumor activity (in words) ([4]; PO, every 4 days x 3 schedule, FIG. 4): highly active orally
Polymerization Potency, EC0.01 [5]: 7400 nM
Ratio of Polymerization Potency of Analog/Paclitaxel [5]: 1.7
tubulin polymerization potency relative to paclitaxel (fold more potent) [5]: about 2.5 fold
pIC50 [8]: 8.46 to 9.05
